We go through 10 compounds from patent publication US5500423A, “5,6-dihydro-4H-imidazo[4,5,1-ij]quinolines” (Hoechst-Roussel Pharmaceuticals Inc., priority 1994, dated 1996).

Structures can show the parent of a compound that is named as a salt.

In the first test the test system is mice. In words: phenyl-p-quinone writhing assay in mice (analgesia). The conditions noted are these: Mus musculus, sc, 0.5 h, read-out: % Inhibition of Writhing. It counts as in vivo. (An intraperitoneal irritant provokes the stretching counted in writhing tests.)
In the case of `c1cc2c3c(c1)nc(N1CCNCC1)n3CCC2` [5,6-Dihydro-2-(1-piperazinyl)-4H-imidazo[4,5,1-ij]quinoline dihydrochloride], the inhibition in vivo at 20 mg/kg was 57%. Turning to `c1cc2c3c(c1)nc(C1CCNCC1)n3CCC2` [2-(4-Piperidinyl)-5,6-dihydro-4H-imidazo[4,5,1-ij]quinoline fumarate], the inhibition in vivo at 20 mg/kg is 31%.

Still in this test, the particulars now being: Mus musculus, sc, 0.5 h; 20 mg/kg subcutaneous, 30 minutes before injection of phenylquinone; mice; read-out: % Inhibition of Writhing.
On to `CCOC(=O)N1CCN(c2nc3cccc4c3n2CCC4)CC1` [Ethyl-4-[5,6-dihydro-4H-imidazo[4,5,1-ij]quinolin-2-yl]-1-piperazinecarboxylate fumarate], for which the inhibition in vivo at 20 mg/kg came out at 47%.

Consider `c1cc2c3c(c1)nc(N1CCSCC1)n3CCC2` [5,6-Dihydro-2-(4-thiomorpholinyl)-4H-imidazo[4,5,1-ij]quinoline hydrochloride], for which the inhibition in vivo at 20 mg/kg amounted to 53%. As to `CN(C)C1CCN(c2nc3cccc4c3n2CCC4)CC1` [5,6-Dihydro-2-(4-dimethylamino-1-piperidinyl)-4H-imidazo[4,5,1-ij]quinolinefumarate], the inhibition in vivo at 20 mg/kg came to 48%. `CC(=O)N1CCC(c2nc3cccc4c3n2CCC4)CC1` [1-Acetyl-4-[5,6-dihydro-4H-imidazo[4,5,1-ij]quinolin-2-yl]piperidine]: the inhibition in vivo at 20 mg/kg turned out to be 51%. With `Fc1ccc(C(CCCN2CCN(c3nc4cccc5c4n3CCC5)CC2)c2ccc(F)cc2)cc1` [4-[4,4-Bis(4-fluorophenyl)-butyl]-1-piperazinyl-5,6-dihydro-4H-imidazo[4,5,1-ij]quinoline], the inhibition in vivo at 20 mg/kg amounted to 43%. On the same count and under the same terms, the value for `c1cc2c3c(c1)nc(N1CCCCC1)n3CCC2` [5,6-Dihydro-2-(1-piperidinyl)-4H-imidazo[4,5.1-ij]quinoline hydrochloride] was 68%; that for `c1ccc(CCN2CCN(c3nc4cccc5c4n3CCC5)CC2)cc1` [5,6-Dihydro-2-(4-phenylethyl-1-piperazinyl)-4H-imidazo[4,5,1-ij]quinoline] was 45%.

The test is the same for the next values; noted with them: Mus musculus, sc, read-out: % Inhibition of Writhing.
For `CCC(=O)O[C@](Cc1ccccc1)(c1ccccc1)[C@H](C)CN(C)C` [propoxyphene, reference compound], the inhibition in vivo at 5 mg/kg is 19%.
